Test results: US20070021351A1, “Liver/plasma concentration ratio for dosing hepatitis C virus protease inhibitor” (Schering Corporation, priority 2005, published 2007)

Test: Example 3: multiple-dose (14 days) pharmacokinetics in HCV positive subjects
Type: in vivo, human
Description: Multiple escalating doses of compound of Formula Ia were administered for 14 days to HCV positive subjects who were genotype 1 Interferon-a (with or without ribavirin) non responders. In a randomized, placebo controlled, third party blind study, multiple doses of 100 mg BID, 200 mg BID, 400 mg BID, 400 mg TID, and 600 mg TID of compound of Formula Ia or placebo in a 3:1 ratio with or without food were evaluated.
• Group 1: Compound of Formula Ia 100 mg (2×50 mg) BID or matching placebo×14 days without food. • Group 2: Compound of Formula Ia 200 mg (2×100 mg) BID or matching placebo×14 days without food. • Group 3: Compound of Formula Ia 400 mg (4×100 mg) BID or matching placebo×14 days without food. • Group 4: Compound of Formula Ia 400 mg (4×100 mg) TID or matching placebo×14 days without food. • Group 5: Compound of Formula Ia 400 mg (4×100 mg) BID or matching placebo×14 days with food. • Group 6: Compound of Formula Ia 600 mg (6×100 mg) BID or matching placebo×14 days without food. • Group 7: Compound of Formula Ia 600 mg (6×100 mg) BID or matching placebo×14 days with food. • Group 8: compound of Formula Ia 600 mg (6×100 mg) TID or matching placebo×14 days without food. • Group 9: compound of Formula Ia intermediate dose or matching placebo×14 days with or without food.
Each subject was randomized to one treatment group. On Day 14, only the AM dose was administered.
For Cohorts Without Food: Treatments were administered on the morning (approximately 8 AM) of Days 1 and 14 following a 10 hour fast. Fasting continued until 4 hours postdose. Water was allowed during the fasting period. On the nonpharmacokinetic collection days (Days 2 through 13) breakfast and dinner were consumed either 90 minutes before or 90 minutes after each dose. All treatments were administered with approximately 240 mL of noncarbonated water. All doses on Days 1-14 were administered at approximately the same time each day, for cohorts with BID dosing study treatment were administered approximately 12 hours apart at 8 AM and 8 PM, and for cohorts with TID dosing study treatment were administered approximately 8 hours apart at 8 AM, 4 PM, and 12 Midnight.
For Cohorts With TID Dosing: All volunteers were dosed three times daily at approximately the same time each day; the doses were administered approximately 8 hours apart at 8 AM, 4 PM, and 12 Midnight.
For Cohorts With BID Dosing: All volunteers were dosed twice a day at approximately the same time each day. The doses were administered approximately 12 hours apart at 8 AM and 8 PM.
On Day 14, all subjects received only their assigned AM dose. During the dosing the capsule(s) were swallowed whole, not chewed or crushed. After dosing, the oral cavity was inspected to assure the volunteer had completely swallowed the capsule(s). […] Water was permitted throughout the fasting and nonfasting periods. […]
The plasma concentration data of compound of Formula Ia was used to estimate the following pharmacokinetic parameters: • Cmax—Maximum observed plasma concentration; • Tmax—Time of observed maximum plasma concentration; • AUC(O-t)—Area under the plasma concentration-time curve over the dosing interval • AUC (tf)—Area under the plasma concentration-time curve to the final quantifiable sample • CL/F—Apparent total body clearance. • t½—Terminal phase half life • Vd/F—Apparent volume of distribution • R—Accumulation ratio […]

Compound: CC(C)(C)NC(=O)N[C@H](C(=O)N1C[C@H]2[C@@H]([C@H]1C(=O)NC(CC1CCC1)C(=O)C(N)=O)C2(C)C)C(C)(C)C (mixture of isomers) [Formula Ia, (1R,5S)-N-[3-Amino-1-(Cyclobutylmethyl)-2,3-Dioxopropyl]-3-[2(S)-[[[(1,1-Dimethylethyl)Amino]Carbonyl]Amino]-3,3-Dimethyl-1-Oxobutyl]-6,6-Dimethyl-3-Azabicyclo[3.1.0]Hexan-2(S)-Carboxamide]
- mean accumulation ratio for BID dosing (BID dosing, 14 days): 1
- Cmax (Day 14, 400 mg BID without food, mean, n=11): 459 ng/mL
- AUC(0-12 hr) (Day 14, 400 mg BID, mean, n=11): 1644 ng·h/mL
- concentration at 11 day (human, plasma, multiple oral dosing, read-out: steady-state level (trough, Cmin)): ~200 ng/mL
- time at which steady-state levels were reached (trough data (Cmin)): ~11 days
